The structures appear in SMILES notation.

T2 sequence (Q92793 whole entry): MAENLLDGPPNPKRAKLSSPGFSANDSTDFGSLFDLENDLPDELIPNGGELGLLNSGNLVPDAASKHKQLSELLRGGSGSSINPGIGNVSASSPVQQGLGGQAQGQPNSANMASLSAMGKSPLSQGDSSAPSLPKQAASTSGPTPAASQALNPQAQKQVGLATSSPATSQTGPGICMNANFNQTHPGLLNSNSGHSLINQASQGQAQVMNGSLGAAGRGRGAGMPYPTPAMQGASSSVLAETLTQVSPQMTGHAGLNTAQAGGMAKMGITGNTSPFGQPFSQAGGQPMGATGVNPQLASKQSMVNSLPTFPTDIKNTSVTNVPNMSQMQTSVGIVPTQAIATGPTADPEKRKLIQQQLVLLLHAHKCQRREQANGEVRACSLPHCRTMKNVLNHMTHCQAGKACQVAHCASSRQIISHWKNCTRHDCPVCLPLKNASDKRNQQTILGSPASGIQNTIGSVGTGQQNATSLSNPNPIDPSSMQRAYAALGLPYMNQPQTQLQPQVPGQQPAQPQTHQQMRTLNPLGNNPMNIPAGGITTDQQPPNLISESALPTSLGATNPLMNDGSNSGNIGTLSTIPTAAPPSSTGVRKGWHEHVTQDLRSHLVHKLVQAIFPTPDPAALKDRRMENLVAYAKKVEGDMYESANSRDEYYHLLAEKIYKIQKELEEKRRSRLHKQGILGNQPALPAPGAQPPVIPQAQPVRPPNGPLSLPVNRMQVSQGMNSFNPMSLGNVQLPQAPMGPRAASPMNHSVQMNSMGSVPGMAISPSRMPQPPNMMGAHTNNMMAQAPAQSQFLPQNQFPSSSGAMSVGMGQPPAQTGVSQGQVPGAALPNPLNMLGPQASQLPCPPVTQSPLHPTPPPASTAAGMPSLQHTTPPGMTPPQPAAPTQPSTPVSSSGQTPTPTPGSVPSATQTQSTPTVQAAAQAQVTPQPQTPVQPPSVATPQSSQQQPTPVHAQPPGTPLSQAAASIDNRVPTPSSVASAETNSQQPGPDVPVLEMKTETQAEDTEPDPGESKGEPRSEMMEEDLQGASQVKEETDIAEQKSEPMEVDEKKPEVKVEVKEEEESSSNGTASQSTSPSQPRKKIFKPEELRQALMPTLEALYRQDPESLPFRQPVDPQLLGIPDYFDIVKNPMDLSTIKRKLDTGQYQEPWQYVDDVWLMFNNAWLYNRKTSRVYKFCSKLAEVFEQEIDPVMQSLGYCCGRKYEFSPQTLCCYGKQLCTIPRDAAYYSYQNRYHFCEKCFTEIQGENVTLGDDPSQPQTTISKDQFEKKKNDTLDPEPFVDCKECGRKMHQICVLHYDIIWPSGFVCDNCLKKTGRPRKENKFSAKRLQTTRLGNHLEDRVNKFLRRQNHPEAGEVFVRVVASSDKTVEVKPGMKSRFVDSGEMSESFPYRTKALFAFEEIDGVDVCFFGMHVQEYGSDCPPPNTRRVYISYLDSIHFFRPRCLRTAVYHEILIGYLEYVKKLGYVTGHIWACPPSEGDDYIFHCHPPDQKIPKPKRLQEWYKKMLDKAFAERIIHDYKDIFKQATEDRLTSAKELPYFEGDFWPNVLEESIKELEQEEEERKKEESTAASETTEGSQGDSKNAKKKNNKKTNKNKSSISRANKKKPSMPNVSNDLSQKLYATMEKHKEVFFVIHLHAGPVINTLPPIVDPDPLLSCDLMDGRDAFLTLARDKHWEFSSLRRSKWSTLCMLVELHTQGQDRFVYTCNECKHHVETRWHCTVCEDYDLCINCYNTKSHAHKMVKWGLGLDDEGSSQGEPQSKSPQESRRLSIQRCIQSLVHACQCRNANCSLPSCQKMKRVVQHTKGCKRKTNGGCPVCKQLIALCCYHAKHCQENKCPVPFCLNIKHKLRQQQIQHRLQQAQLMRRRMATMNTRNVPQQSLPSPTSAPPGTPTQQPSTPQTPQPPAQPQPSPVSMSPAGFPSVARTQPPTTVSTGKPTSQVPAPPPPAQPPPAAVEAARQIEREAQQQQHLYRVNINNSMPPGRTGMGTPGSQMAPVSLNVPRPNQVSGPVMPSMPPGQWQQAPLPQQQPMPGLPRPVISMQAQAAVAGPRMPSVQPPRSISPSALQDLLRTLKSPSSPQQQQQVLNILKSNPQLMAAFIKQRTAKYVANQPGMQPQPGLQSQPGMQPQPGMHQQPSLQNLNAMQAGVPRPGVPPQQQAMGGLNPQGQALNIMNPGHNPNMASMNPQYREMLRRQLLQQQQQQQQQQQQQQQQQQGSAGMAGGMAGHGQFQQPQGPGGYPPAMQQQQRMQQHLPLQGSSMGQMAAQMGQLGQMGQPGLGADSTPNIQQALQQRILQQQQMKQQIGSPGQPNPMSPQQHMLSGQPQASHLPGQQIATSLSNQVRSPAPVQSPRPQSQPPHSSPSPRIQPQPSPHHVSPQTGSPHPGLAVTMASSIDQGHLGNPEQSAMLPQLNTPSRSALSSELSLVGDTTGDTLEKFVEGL
Sequence of CRBN/DDB1 (Q96SW2 whole entry): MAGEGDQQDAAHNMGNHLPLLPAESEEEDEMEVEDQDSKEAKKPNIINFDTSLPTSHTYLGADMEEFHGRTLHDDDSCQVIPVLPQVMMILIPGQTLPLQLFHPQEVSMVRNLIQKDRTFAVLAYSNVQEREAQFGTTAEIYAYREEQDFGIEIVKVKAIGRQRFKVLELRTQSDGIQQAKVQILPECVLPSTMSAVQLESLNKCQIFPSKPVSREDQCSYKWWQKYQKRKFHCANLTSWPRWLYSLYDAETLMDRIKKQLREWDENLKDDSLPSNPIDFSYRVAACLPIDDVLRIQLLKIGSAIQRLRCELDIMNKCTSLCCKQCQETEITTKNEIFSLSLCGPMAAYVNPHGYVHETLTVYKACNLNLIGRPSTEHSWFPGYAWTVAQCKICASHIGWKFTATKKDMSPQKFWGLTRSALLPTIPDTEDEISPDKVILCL
Sequence of CRBN/DDB1 (Q16531 whole entry, further chain): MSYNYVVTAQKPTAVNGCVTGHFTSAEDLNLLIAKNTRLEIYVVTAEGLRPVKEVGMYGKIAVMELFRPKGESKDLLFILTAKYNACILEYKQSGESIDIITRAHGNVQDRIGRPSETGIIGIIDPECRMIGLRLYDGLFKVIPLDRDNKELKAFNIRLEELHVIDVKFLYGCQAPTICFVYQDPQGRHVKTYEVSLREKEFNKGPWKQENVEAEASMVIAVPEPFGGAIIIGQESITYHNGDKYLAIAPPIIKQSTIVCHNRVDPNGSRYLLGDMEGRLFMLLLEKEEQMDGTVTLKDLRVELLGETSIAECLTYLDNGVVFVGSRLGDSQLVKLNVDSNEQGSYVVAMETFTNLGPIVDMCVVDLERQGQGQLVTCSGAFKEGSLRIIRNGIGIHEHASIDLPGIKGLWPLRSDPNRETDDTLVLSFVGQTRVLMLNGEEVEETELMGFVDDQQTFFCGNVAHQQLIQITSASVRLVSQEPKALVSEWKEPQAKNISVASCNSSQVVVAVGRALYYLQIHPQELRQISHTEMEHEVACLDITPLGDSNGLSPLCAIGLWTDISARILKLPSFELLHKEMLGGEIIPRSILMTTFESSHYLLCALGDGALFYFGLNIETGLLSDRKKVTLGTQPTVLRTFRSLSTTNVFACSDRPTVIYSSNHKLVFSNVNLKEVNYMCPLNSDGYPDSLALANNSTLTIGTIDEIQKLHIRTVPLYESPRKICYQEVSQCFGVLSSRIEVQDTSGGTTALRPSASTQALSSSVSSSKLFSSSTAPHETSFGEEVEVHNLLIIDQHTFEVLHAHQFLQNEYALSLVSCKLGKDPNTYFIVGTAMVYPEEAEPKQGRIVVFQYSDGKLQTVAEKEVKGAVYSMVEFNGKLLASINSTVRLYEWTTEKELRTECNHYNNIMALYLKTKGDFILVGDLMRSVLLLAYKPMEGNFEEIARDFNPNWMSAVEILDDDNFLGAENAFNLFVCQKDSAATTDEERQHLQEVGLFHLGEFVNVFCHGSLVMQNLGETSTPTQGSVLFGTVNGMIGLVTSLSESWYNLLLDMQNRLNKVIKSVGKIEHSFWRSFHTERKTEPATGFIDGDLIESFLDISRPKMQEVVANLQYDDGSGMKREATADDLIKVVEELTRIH

In the first assay the target is T1, STAT3 (Homo sapiens, UniProt P40763).
T1 construct: host or cells: HeLa (STAT3-HiBiT CRISPR knock-in clone)
T1 sequence (P40763 whole entry): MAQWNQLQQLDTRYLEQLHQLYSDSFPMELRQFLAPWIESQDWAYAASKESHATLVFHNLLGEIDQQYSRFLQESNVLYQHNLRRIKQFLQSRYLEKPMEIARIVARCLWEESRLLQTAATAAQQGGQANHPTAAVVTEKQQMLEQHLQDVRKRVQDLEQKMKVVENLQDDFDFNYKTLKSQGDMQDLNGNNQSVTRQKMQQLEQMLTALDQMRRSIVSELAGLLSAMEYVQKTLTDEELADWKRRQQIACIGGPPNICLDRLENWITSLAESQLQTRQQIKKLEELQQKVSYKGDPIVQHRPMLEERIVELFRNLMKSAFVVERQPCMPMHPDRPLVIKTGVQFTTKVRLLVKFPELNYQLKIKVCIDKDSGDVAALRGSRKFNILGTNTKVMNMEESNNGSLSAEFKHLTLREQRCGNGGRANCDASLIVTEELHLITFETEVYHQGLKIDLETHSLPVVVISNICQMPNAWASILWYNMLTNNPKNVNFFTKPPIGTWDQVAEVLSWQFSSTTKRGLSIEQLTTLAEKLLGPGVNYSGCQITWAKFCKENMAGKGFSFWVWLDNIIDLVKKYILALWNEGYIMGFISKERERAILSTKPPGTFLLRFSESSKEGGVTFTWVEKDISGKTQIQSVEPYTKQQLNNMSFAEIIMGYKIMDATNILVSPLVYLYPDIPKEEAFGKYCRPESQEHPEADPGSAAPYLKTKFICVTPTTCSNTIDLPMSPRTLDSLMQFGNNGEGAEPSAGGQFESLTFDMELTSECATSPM
As to the kind of experiment: STAT3 degradation HiBiT assay (STAT3-HIBIT KI HeLa). It counts as cell-based. The settings on record: STAT3-HIBIT KI HeLa cells, 24 hours. How it is done:
STAT3-HIBIT KI HeLa cell line was purchased from Promega. This cell line is a clone created by using CRISPR-Cas9 to fuse HiBIT to the 3′ end of STAT3 in HeLa cells. DMEM medium and FBS were purchased from Gibco/Thermo Fisher Scientific. STAT3 degradation was determined based on quantification of luminescent signal using Nano-Glo HiBIT Lytic Detection System. In a typical procedure, cells seeded at 20000 cells per well in 96-well white plates (Corning) were incubated with serially diluted compounds for 24 hours at 37° C. with 5% CO2. At the end of treatment, Nano-Glo HiBIT Lytic Detection reagents was added to the wells and luminescence was acquired on TECAN PSARK plate reader. Untreated cells were used as control. Data points were fit with a four-parameter equation to generate a concentration-response curve. IC50 values were calculated using a nonlinear regression analysis of the mean±SD from triplicate.
`NC(=O)CC[C@H](NC(=O)[C@@H]1CC[C@@H]2CCN(C(=O)CCCCC(=O)N3CCC4(CC3)COc3c4ccc4c3CN([C@H]3CCC(=O)NC3=O)C4=O)C[C@H](NC(=O)c3cc4cc(C(F)(F)P(=O)(O)O)ccc4s3)C(=O)N21)C(=O)NC(c1ccccc1)c1ccccc1` [STD 22, ((2-(((5S,8S,10aR)-8-(((S)-5-amino-1-(benzhydrylamino)-1,5-dioxopentan-2-yl)carbamoyl)-3-(6-(7-((S)-2,6-dioxopiperidin-3-yl)-6-oxo-7,8-dihydro-2H,6H-spiro[furo[2,3-e]isoindole-3,4′-piperidin]-1′-yl)-6-oxohexanoyl)-6-oxodecahydropyrrolo[1,2-a][1,5]diazocin-5-yl)carbamoyl)benzo[b]thiophen-5-yl)difluoromethyl)phosphonic acid] returned a DC50 of 1 to 10 µM and a Dmax of less than 40%.

The next assay has as its target T2, CBP (Homo sapiens, UniProt Q92793).
T2 construct: endogenous in cells; host or cells: 22Rv1
The experiment in a line: CBP degradation, western blot, 22Rv1. It counts as cell-based. To be noted: 22Rv1, 5 h. On the procedure: (§1) WesternT Blot Analysis. Western blot analysis was performed essentially as described previously. The cells treated with indicated compounds were lysed in Radioimmunoprecipitation Assay Protein Lysis and Extraction Buffer (25 mmol/L Tris.HCl, pH 7.6, 150 mmol/L NaCl, 1% Nonidet P-40, 1% sodium deoxycholate, and 0.1% sodium dodecyl sulfate) containing proteinase inhibitor cocktail (Roche Diagnostics, Mannheim, Germany). Equal amounts of total protein were electrophoresed through 10% SDS-polyacrylamide gels after determination of protein concentration by BCA assay (Fisher Scientific, Pittsburgh, PA). The separated protein bands were transferred onto PVDF membranes (GE Healthcare Life Sciences, Marlborough, MA) and blotted against different antibodies, as indicated. The blots were scanned, and the band intensities were quantified using GelQuant.NET software provided by biochemlabsolutions.com. The relative mean intensity of target proteins was expressed after normalization to the intensity of glyceraldehyde-3-phosphate dehydrogenase bands.
As for `CC(=O)N1CCc2c(c(N3CCCc4cc(-c5cnn(C)c5)c(C(F)F)cc43)nn2C2CCN(CC(=O)N3CCC4(CC3)COc3c4ccc4c3CN([C@H]3CCC(=O)NC3=O)C4=O)CC2)C1` [CPD-001, (S)-3-(1′-(2-(4-(5-acetyl-3-(7-(difluoromethyl)-6-(1-methyl-1H-pyrazol-4-yl)-3,4-dihydroquinolin-1(2H)-yl)-4,5,6,7-tetrahydro-1H-pyrazolo[4,3-c]pyridin-1-yl)piperidin-1-yl)acetyl)-6-oxo-6,8-dihydro-2H,7H-spiro[furo[2,3-e]isoindole-3,4′-piperidin]-7-yl)piperidine-2,6-dione], the “CBP Degradation DCmax” value was “A (A (≥90%))” and the DC50 was less than 0.0001 µM. On the same counts, the results for `CC(=O)N1CCc2c(c(N3CCCc4cc(-c5cnn(C)c5)c(C(F)F)cc43)nn2C2CCN(C(=O)CN3CCC4(CC3)COc3c4ccc4c3CN([C@H]3CCC(=O)NC3=O)C4=O)CC2)C1` [CPD-002, (S)-3-(1′-(2-(4-(5-acetyl-3-(7-(difluoromethyl)-6-(1-methyl-1H-pyrazol-4-yl)-3,4-dihydroquinolin-1(2H)-yl)-4,5,6,7-tetrahydro-1H-pyrazolo[4,3-c]pyridin-1-yl)piperidin-1-yl)-2-oxoethyl)-6-oxo-6,8-dihydro-2H,7H-spiro[furo[2,3-e]isoindole-3,4′-piperidin]-7-yl)piperidine-2,6-dione] are “A (A (≥90%))” and less than 0.0001 µM. As for `CC(=O)N1CCc2c(c(N3CCCc4cc(-c5cnn(C)c5)c(C(F)F)cc43)nn2C2CCC(N3CCC4(CC3)COc3c4ccc4c3CN([C@H]3CCC(=O)NC3=O)C4=O)CC2)C1` (stereo partly drawn) [CPD-003, (S)-3-(1′-(4-(5-acetyl-3-(7-(difluoromethyl)-6-(1-methyl-1H-pyrazol-4-yl)-3,4-dihydroquinolin-1(2H)-yl)-4,5,6,7-tetrahydro-1H-pyrazolo[4,3-c]pyridin-1-yl)cyclohexyl)-6-oxo-6,8-dihydro-2H,7H-spiro[furo[2,3-e]isoindole-3,4′-piperidin]-7-yl)piperidine-2,6-dione], the “CBP Degradation DCmax” value was “A (A (≥90%))” and the DC50 is less than 0.0001 µM.

The next assay has as its target T3, P300 (Homo sapiens, UniProt Q09472).
T3 construct: endogenous in cells; host or cells: 22Rv1
As to the kind of experiment: P300 degradation, western blot, 22Rv1. The class given is cell-based. To be noted: 22Rv1, 5 h. On the procedure:
as §1
Turning to `CC(=O)N1CCc2c(c(N3CCCc4cc(-c5cnn(C)c5)c(C(F)F)cc43)nn2C2CCN(CC(=O)N3CCC4(CC3)COc3c4ccc4c3CN([C@H]3CCC(=O)NC3=O)C4=O)CC2)C1` [CPD-001, (S)-3-(1′-(2-(4-(5-acetyl-3-(7-(difluoromethyl)-6-(1-methyl-1H-pyrazol-4-yl)-3,4-dihydroquinolin-1(2H)-yl)-4,5,6,7-tetrahydro-1H-pyrazolo[4,3-c]pyridin-1-yl)piperidin-1-yl)acetyl)-6-oxo-6,8-dihydro-2H,7H-spiro[furo[2,3-e]isoindole-3,4′-piperidin]-7-yl)piperidine-2,6-dione], the DC50 is 0.0001 to 0.001 µM and the “P300 Degradation DCmax” value is given as “A (A (≥90%))”. On the same counts, the results for `CC(=O)N1CCc2c(c(N3CCCc4cc(-c5cnn(C)c5)c(C(F)F)cc43)nn2C2CCN(C(=O)CN3CCC4(CC3)COc3c4ccc4c3CN([C@H]3CCC(=O)NC3=O)C4=O)CC2)C1` [CPD-002, (S)-3-(1′-(2-(4-(5-acetyl-3-(7-(difluoromethyl)-6-(1-methyl-1H-pyrazol-4-yl)-3,4-dihydroquinolin-1(2H)-yl)-4,5,6,7-tetrahydro-1H-pyrazolo[4,3-c]pyridin-1-yl)piperidin-1-yl)-2-oxoethyl)-6-oxo-6,8-dihydro-2H,7H-spiro[furo[2,3-e]isoindole-3,4′-piperidin]-7-yl)piperidine-2,6-dione] are less than 0.0001 µM and “A (A (≥90%))”.

Take `CC(=O)N1CCc2c(c(N3CCCc4cc(-c5cnn(C)c5)c(C(F)F)cc43)nn2C2CCC(N3CCC4(CC3)COc3c4ccc4c3CN([C@H]3CCC(=O)NC3=O)C4=O)CC2)C1` (stereo partly drawn) [CPD-003, (S)-3-(1′-(4-(5-acetyl-3-(7-(difluoromethyl)-6-(1-methyl-1H-pyrazol-4-yl)-3,4-dihydroquinolin-1(2H)-yl)-4,5,6,7-tetrahydro-1H-pyrazolo[4,3-c]pyridin-1-yl)cyclohexyl)-6-oxo-6,8-dihydro-2H,7H-spiro[furo[2,3-e]isoindole-3,4′-piperidin]-7-yl)piperidine-2,6-dione]: the DC50 is less than 0.0001 µM and the “P300 Degradation DCmax” value is listed as “A (A (≥90%))”.

Another assay concerns the target CRBN/DDB1 (Homo sapiens, UniProt Q96SW2). As to the kind of experiment: biochemical.
Details: not given
`O=C1CCC(N2Cc3cc4c(cc3C2=O)OCC42CCNCC2)C(=O)N1` (stereo not drawn) [Compound A1, 3-(7-oxo-5,7-dihydro-2H,6H-spiro[furo[2,3-f]isoindole-3,4′-piperidin]-6-yl)piperidine-2,6-dione] returned an IC50 of 0.94 µM. In other words, the sub-micromolar range. Still for that read-out and setting: with `O=C1CCC(N2Cc3cc4c(cc3C2=O)CCOC42CCNCC2)C(=O)N1` (stereo not drawn) [Compound A3, 3-(1′-oxo-1′,3′,7′,8′-tetrahydro-2′H-spiro[piperidine-4,5′-pyrano[3,4-f]isoindol]-2′-yl)piperidine-2,6-dione] the figure was 0.27 µM; with `CN1CCC2(CC1)COc1cc3c(cc12)CN(C1CCC(=O)NC1=O)C3=O` (stereo not drawn) [Compound A4, 3-(1′-methyl-7-oxo-5,7-dihydro-2H,6H-spiro[furo[2,3-f]isoindole-3,4′-piperidin]-6-yl)piperidine-2,6-dione], 0.096 µM; with `CC(=O)N1CCC2(CC1)COc1cc3c(cc12)CN(C1CCC(=O)NC1=O)C3=O` (stereo not drawn) [Compound A5, 3-(1′-acetyl-7-oxo-5,7-dihydro-2H,6H-spiro[furo[2,3-f]isoindole-3,4′-piperidin]-6-yl)piperidine-2,6-dione], 3.8 µM. Still for that read-out and setting: next, `CN1CCC2(CC1)OCCc1cc3c(cc12)CN(C1CCC(=O)NC1=O)C3=O` (stereo not drawn) [Compound A6, 3-(1-methyl-1′-oxo-1′,3′,7′,8′-tetrahydro-2′H-spiro[piperidine-4,5′-pyrano[3,4-f]isoindol]-2′-yl)piperidine-2,6-dione]: 2.2 µM; `CC(=O)N1CCC2(CC1)OCCc1cc3c(cc12)CN(C1CCC(=O)NC1=O)C3=O` (stereo not drawn) [Compound A7, 3-(1-acetyl-1′-oxo-1′,3′,7′,8′-tetrahydro-2′H-spiro[piperidine-4,5′-pyrano[3,4-f]isoindol]-2′-yl)piperidine-2,6-dione]: 3 µM; `O=C1CCC(N2Cc3c(ccc4c3OCC43CCCNCC3)C2=O)C(=O)N1` (stereo not drawn) [Compound A8, 3-(6′-oxo-6′,8′-dihydro-2′H,7′H-spiro[azepane-4,3′-furo[2,3-e]isoindol]-7′-yl)piperidine-2,6-dione]: 0.75 µM.

With `O=C1CCC(N2Cc3c(ccc4c3OCC43CCNC3)C2=O)C(=O)N1` (stereo not drawn) [Compound A9, 3-(6-oxo-6,8-dihydro-2H,7H-spiro[furo[2,3-e]isoindole-3,3′-pyrrolidin]-7-yl)piperidine-2,6-dione], the IC50 was determined as 0.21 µM. This IC50 is about 3.6-fold lower than that of the compound before. Still for that read-out and setting: next, `CC(C)(C)OC(=O)N1CCC2(CC1)COc1cc3c(cc12)CN(C1CCC(=O)NC1=O)C3=O` (stereo not drawn) [Compound A14, tert-butyl 6-(2,6-dioxopiperidin-3-yl)-7-oxo-6,7-dihydro-2H,5H-spiro[furo[2,3-f]isoindole-3,4′-piperidine]-1′-carboxylate]: 0.29 µM; `O=C1CC[C@H](N2Cc3c(ccc4c3OCC43CCNCC3)C2=O)C(=O)N1` [Compound A15, (S)-3-(6-oxo-6,8-dihydro-2H,7H-spiro[furo[2,3-e]isoindole-3,4′-piperidin]-7-yl)piperidine-2,6-dione]: 0.055 µM. Still for that read-out and setting: with `O=C1CCC(N2Cc3c(ccc4c3OCC43CCNCC3(F)F)C2=O)C(=O)N1` (stereo not drawn) [Compound A17, 3-(3′,3′-difluoro-6-oxo-6,8-dihydro-2H,7H-spiro[furo[2,3-e]isoindole-3,4′-piperidin]-7-yl)piperidine-2,6-dione] the figure was 0.23 µM. The compound `O=C1CC[C@H](NC(=O)c2ccc3c(n2)OCC32CCNCC2)C(=O)N1` [Compound A18, (S)-N-(2,6-dioxopiperidin-3-yl)-2H-spiro[furo[2,3-b]pyridine-3,4′-piperidine]-6-carboxamide] displayed an IC50 of more than 10000 µM. Same read-out and setting: next, `Cc1cc2c(c3c1C(=O)N([C@H]1CCC(=O)NC1=O)C3)OCC21CCNCC1` [Compound A19, (S)-3-(5-methyl-6-oxo-6,8-dihydro-2H,7H-spiro[furo[2,3-e]isoindole-3,4′-piperidin]-7-yl)piperidine-2,6-dione]: 0.18 µM. The same measure, in the same setting: with `O=C1CC[C@H](N2Cc3c4c(cc(Cl)c3C2=O)C2(CCNCC2)CO4)C(=O)N1` [Compound A20, (S)-3-(5-chloro-6-oxo-6,8-dihydro-2H,7H-spiro[furo[2,3-e]isoindole-3,4′-piperidin]-7-yl)piperidine-2,6-dione] the figure was 0.038 µM; with `COc1cc2c(c3c1C(=O)N([C@H]1CCC(=O)NC1=O)C3)OCC21CCNCC1` [Compound A21, (S)-3-(5-methoxy-6-oxo-6,8-dihydro-2H,7H-spiro[furo[2,3-e]isoindole-3,4′-piperidin]-7-yl)piperidine-2,6-dione], 0.17 µM; with `COc1cc2c(c3c1C(=O)N([C@@H]1CCC(=O)NC1=O)C3)OCC21CCNCC1` [Compound A22, (R)-3-(5-methoxy-6-oxo-6,8-dihydro-2H,7H-spiro[furo[2,3-e]isoindole-3,4′-piperidin]-7-yl)piperidine-2,6-dione], 3.9 µM.

These data come from patent publication US20250195484A1, “CEREBLON LIGANDS AND USES THEREOF” (priority 2022, published 2025).
